According to patent US8445006B2, “Biomolecular coating for implants” (Georgia Tech Research Corporation, priority 2006, dated 2013):

Assays:
[1] = test system: MC3T3-E1 cells; assay: Centrifugation cell adhesion assay on ligand-tethered SAMs; type: cell-based, murine
Procedure: MC3T3-E1 murine immature osteoblast-like cells (Riken Cell Bank, Hirosawa, Japan) were used because of their expression of multiple integrins, including alpha5beta1, alpha2beta1, and alphaVbeta3. Cells were maintained at 37° C. in α-MEM supplemented with 10% FBS and 1% penicillin-streptomycin and passaged every 2-3 days via standard culture techniques.
Self-assembled monolayers (SAMs) of alkanethiols on gold were used to present well-defined, ordered surfaces with anchoring groups within a non-fouling background. Tri(ethylene glycol)-terminated alkanethiol (HS—(CH2)11—(OCH2CH2)3—OH; EG3) and carboxylic acid-terminated alkanethiol (HS—(CH2)11—(OCH2CH2)6—OCH2COOH; EG6-COOH) were previously synthesized and characterized. Gold-coated substrates were prepared by sequential deposition of titanium (100 Å) and gold (200 Å) films via an electron beam evaporator (Thermionics Laboratories, Hayward, Calif., 2×10^−6 Torr, 1 A/s) onto clean 6-well plate lids or glass coverslips. Mixed SAM surfaces were prepared on substrates by immersing in a 1.0 mM mixed solution of EG3/EG6-COOH thiols (4 h). Peptide ligands were tethered using standard peptide chemistry. Briefly, following washing in ethanol and ultrapure H2O, SAMs were incubated in 2.0 mM EDC and 5.0 mM NHS in 0.1 M 2-(N-morpho)-ethanesulfonic acid and 0.5 M NaCl (pH 6.0), and subsequently immersed in a 20 mM solution of 2-mercaptoethanol in deionized H2O. Adhesive ligands in PBS were then incubated on the activated supports for 30 min and the unreacted surface NHS esters were then quenched in 20 mM glycine. Finally, the surfaces were blocked in 1% heat-denatured bovine serum albumin (BSA) and then incubated overnight in DPBS to reduce nonspecific protein adsorption.
A modification of a centrifugation assay was used to apply controlled detachment forces to cells adhering to engineered surfaces. Multi-wells of engineered surfaces were created on gold-coated polystyrene plate lids using silicone gaskets (Grace Bio-Labs, Bend, Oreg.). Mixed SAMs were assembled and ligands tethered at varying densities. MC3T3-E1 cells were labeled with […] calcein-AM, a membrane-permeable green fluorescent dye, in 2 mM dextrose-DPBS for 30 min and resuspended in α-MEM with 10% FBS. Cells were seeded onto the surfaces at 200 cells/mm^2, and allowed to attach for 1 h at 37° C. For blocking antibody experiments, cells were incubated in the presence of function-perturbing antibodies (10 μg/ml) for 10 min with gentle agitation prior to cell seeding. Before centrifugation, cell images were taken using a Nikon TE-300 fluorescence microscope and Spot RT digital camera. Wells were then filled completely with dextrose-PBS, sealed, inverted, and centrifuged for 5 min at a prescribed speed on a Beckman Allegra 6 centrifuge (GH 3.8 rotor) to apply normal detachment forces. Media was then gently aspirated from the wells, and wells were refilled for post-spin image collection. Post/pre-spin cell ratios were determined by image analysis, and this adhesive fraction was plotted against ligand surface density to obtain cell adhesion profiles.

[2] = test system: HFN7.1 monoclonal antibody; assay: ELISA with HFN7.1 monoclonal antibody; type: binding; settings: passively adsorbed ligands, various coating concentrations
Procedure: An ELISA was used to probe for the biological activity of the FNIII7-10 fragment compared to pFN. FNIII7-10 or pFN was adsorbed onto either uncoated or Neutravidin-coated (100 μg/ml) 96-well black U-well Dynex plates at various concentrations for 30 min. Following incubation in blocking buffer (0.25% BSA, 0.1 M EDTA, 2.5% Tween-20, 0.00125% NaN3), HFN7.1 antibody (0.6 μg/ml in blocking buffer) was added for 1 h at 37° C., and, after washing with blocking buffer, surfaces were incubated in alkaline phosphatase-conjugated anti-mouse IgG (0.6 μg/ml) for 1 h at 37° C. Washed surfaces were exposed to 4-methylumbelliferyl phosphate (25 mg/ml in 10 mM diethanolamine, pH 9.5). The resulting fluorescence was quantified using an HTS 7000 Plus plate reader (Perkin Elmer, Foster City, Calif.) at 360 nm excitation and 465 nm emission.

[3] = test system: rat tibia cortical bone; assay: Rat tibia cortical bone implantation, histology and bone-implant contact histomorphometry; type: in vivo; settings: 4 weeks
Procedure: Commercially pure titanium implants (FIG. 4) were sonicated in de-ionized water for 20 min to remove surface debris. Implants were then dipped in 4% HF for 30 sec to remove the existing oxide layer and then incubated in 35% HNO3 for 30 min at 50° C. to regenerate a new oxide coating. Samples were transferred to 1.8 N NaOH for 1 min to terminate the oxidation reaction. Implants were then rinsed and boiled in de-ionized water for 1 h. To create the bioactive coating, the implants were incubated in 20 μg/ml GFOGER peptide (SEQ ID NO:1) or type I collagen solution for 1 h. Control titanium rods were incubated in PBS.
Implantations were conducted in accordance with an IACUC-approved protocol. Both hind legs of anesthetized, mature Sprague-Dawley male rats (250-350 g) were shaved and scrubbed with alcohol. The medial aspect of the proximal tibial metaphysis was exposed through an antero-medial skin incision, leaving the medial collateral ligament intact. Using a saline-cooled drill, two defects were created in each tibia. Sterile implant rods were press fit into the defects. Periosteum was mobilized and sutured over the implantation site, and the skin was closed with wound clips. Subjects were euthanized after 4 weeks and proximal tibiae were fixed in neutral buffered formalin for histology or recovered without fixation and maintained in PBS-moistened gauze for immediate mechanical testing.
Excised tibiae were fixed in 10% neutral buffered formalin for 1 week. […] Ground sections of 50-80 μm were generated using the Exakt Grinding System™. Two longitudinal ground sections were generated per tibia, each containing two titanium plugs inserted transverse to the tibia's long axis. Sections were then stained with Sanderson's Rapid Bone Stain™ and a van Gieson counter stain. Bone implant contact (BIC) was measured as the percentage of implant's circumference that was in direct contact with bone tissue (Adobe Photoshop® CS imaging software).
To evaluate the performance of the bioactive GFOGER peptide (SEQ ID NO:1) treatment in vivo, osseointegration in a rat tibia cortical bone model was quantified using quantitative histomorphometry and pull-out mechanical testing. A cylindrical titanium implant rod with a tapered stop collar was designed (FIG. 4). The tapered head ensures that all implants are inserted into the bone at the same depth, guaranteeing uniform bone contact among treatments. Using a saline-cooled drill, two defects 2 mm in diameter were created in the medial aspect of the proximal tibial metaphysis. Implant rods consisting of GFOGER peptide (SEQ ID NO:1) functionalized or untreated (control) titanium were press fit into the cortical defects. After four weeks, the rat tibiae were harvested and evaluated for bone apposition by histological staining and mechanical integration by pull-out testing. […] Representative micrographs show 50-80 μm longitudinal ground sections of rat tibia stained with Sanderson's Rapid Bone Stain™ and van Gieson counterstain. Cells stain dark to light blue, soft tissue elements stain blue-green, and bone matrix stains yellow orange to autumn orange.
Osseointegration of implants in a rat tibia cortical bone model was quantified to evaluate the in vivo performance of the engineered titanium surfaces in bone healing. Importantly, this in vivo model provides a rigorous platform to evaluate implant coating function in a relevant orthopaedic setting. Two 2.0-mm diameter defects were drilled into the medial aspect of the proximal tibial metaphysis using a saline cooled drill. Tapered cylindrical implants (FIG. 4) of clinical-grade titanium were press-fit into the cortical defects.

GRGDG13PHSRN (GRGDGGGGGGGGGGGGGPHSRN) [RGD-PHSRN]
ADH50 (ligand density required for half-maximal adhesion) ([1]; ligand tethered to SAMs, MC3T3-E1): 1950 fmol/cm^2 | adhesion with blocking antibodies against α5β1 integrin ([1]; maximum ligand density, normalized to unblocked controls): only slightly reduced adhesion

pFN: human plasma fibronectin obtained from Invitrogen
HFN7.1 binding (biological activity) [2]: increased with protein coating concentration

type I collagen: native type I collagen coating on titanium implants
bone apposition (bone implant contact, BIC) ([3]; passively coated implants vs untreated titanium): COL>Ti | histology: peri-implant bone mineral ([3]; passively coated titanium implants (20 μg/ml)): Less bone mineral was visible
